Results taken from patent publication US5070210A, “Novel ketenimines as intermediates for insecticides” (ICI Americas Inc., priority 1990, dated 1991).

Columns and labels:
Format in all cases: in vivo
[1] = tested on: Tobacco Budworm [Heliothis virescens (Fabricius)] eggs; assay: Tobacco budworm egg test; conditions: 2-day old eggs, percent in solution
Method in brief: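 LC50 is given as percent compound in the dipping solution, fitted from dosage-mortality curves. Two-day-old eggs on paper towel were dipped in acetone solutions (top concentration 0.1%), kept at 78° F on rearing medium, and scored after control hatch and larval feeding.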

[2] = tested on: Beet Armyworm (Spodoptera exigua); assay: Beet armyworm insecticidal test; conditions: second-instar larvae, percent in solution; five days
Protocol: (§1) The compounds in Tables 1 and 2 above were tested for insecticidal activity using the following testing procedures. LC50 values, based on the results of these tests and calculated according to dosage-mortality curves, are expressed in Table 3.
Beet Armyworm (Spodoptera exigua):
Test compounds were diluted in a 50-50 acetone-water solution. Young leaves of sugar beets (Beta vulgaris) were immersed in the test solutions for 2-3 seconds and placed on a wire screen to dry. The dried leaves were placed in petri dishes containing a moistened filter paper and infested with five second-instar beet armyworm larvae. The dishes were placed in a high humidity chamber. Mortality of the larvae was recorded five days later. Test concentrations ranged from 0.1% downward. The LC-50 values are expressed below in Table 3 under the heading "BAW" in terms of percent of the test compound in solution.

[3] = tested on: Maize weevil [Sitophilus Zeamais (Motschulsky)]; assay: Maize weevil insecticidal test; conditions: adult weevils, percent in solution; 48 hours
Method in brief: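 LC50, in percent of compound in solution, was derived from dosage-mortality curves after 48 h at about 25 °C. Ten adult weevils per container fed on four corn seeds briefly immersed in acetone:water (50:50) solutions of up to 0.01% and dried.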

[4] = tested on: Cabbage Looper [Trichoplusia ni (Hubner)]; assay: Cabbage looper insecticidal test; conditions: second-instar larvae, percent in solution; 3-5 days
Method in brief: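 LC50, as percent test compound in solution, derived from dosage-mortality curves; concentrations started at 0.1% and went lower. Five second-instar larvae per dish fed on acetone-water-dipped, dried squash cotyledons in a humid chamber. Deaths recorded 3-5 days post-infestation.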

[5] = tested on: Tobacco Budworm [Heliothis virescens (Fabricius)] larvae; assay: Tobacco budworm contact test; conditions: second-instar larvae, percent in solution, 5 days
Method in brief: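 Cotton cotyledons dipped 2–3 s in compound in 50-50 acetone-water, dried, then infested with 5 second-instar larvae and held 5 days at high humidity. Mortality scored; LC50 from dosage-mortality curves, expressed as percent compound in solution, concentrations from 0.1% downward.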

[6] = tested on: Aster Leafhopper [Macrosteles fascifrens (Stal)]; assay: Aster leafhopper insecticidal test; conditions: adults/nymphs, percent in solution; 48 hours
Method in brief: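 LC50 values, given as percent of test compound in the dip solution, were derived from dosage-mortality curves over concentrations from 0.05% downward. Mortality was counted 48 hours after ten leafhopper adults/nymphs were enclosed on treated seedlings. The seedlings were oats, about 10 cm tall, briefly dipped in 50-50 acetone-water.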

[7] = tested on: Housefly [Musca domestica]; assay: Housefly insecticidal test; conditions: μg per 25 female flies; mortality after 48 hours
Method in brief: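 LC50, as μg compound per 25 female flies, comes from dosage-mortality curves with doses from 100 μg downward. Residues were made by evaporating acetone plus 0.01% peanut oil in dishes, onto which 1-2-day-old females were caged; deaths were counted after 48 hours.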

[8] = tested on: Rice water weevil [Lissorhoptrus oryzophilus (Kuschel)]; assay: Rice water weevil insecticidal test; conditions: topical, μg per weevil; 48 hours
Protocol: as §1
Rice water weevil [Lissorhoptrus oryzophilus (Kuschel)]:
Test compounds were diluted in acetone. Droplets (1 μl) of test solutions were applied to the ventral abdomens of ten female adult weevils. The treated weevils were placed in containers with wet cotton balls and rice foliage. The containers were covered and kept at a temperature of about 25° C. Mortality was recorded after 48 hours. Test concentrations ranged from […] or 2.5 μg per weevil down to that at which 50% mortality occurred. The LC50 values are expressed below in Table 3 under the heading "RWW" in terms of μg of test compound per weevil.

SMILES	LC50, TBW, E (TBW-E) [1] [%]	LC50, BAW [2] [%]	LC50, MW [3] [%]	LC50, CL [4] [%]	LC50, TBW, C (TBW-C) [5] [%]	LC50, LH [6] [%]	LC50, HF [7] [µg]	LC50, RWW [8] [µg]
CC(C)C(=Nc1ccc(F)c(Cl)c1)OCc1ccc(F)c(Oc2ccc(F)c(F)c2)c1 [Compound 346]	> 0.1	> 0.1	> 0.01	> 0.1	0.0002	0.05	7.2	–
CC(C)C(=Nc1ccc(OC(F)(F)F)cc1)OCc1ccc(F)c(Oc2ccc(F)c(F)c2)c1 [Compound 347]	> 0.1	0.00075	> 0.01	0.000075	0.0001	0.0002	30	–
CC(C)C(=Nc1ccc(F)c(F)c1F)OCc1cccc(Oc2ccc(F)cc2)c1 [Compound 348]	> 0.1	> 0.1	> 0.01	0.0002	0.00075	0.05	8	–
CCOc1ccc(N=C(OCc2ccc(F)c(Oc3ccc(Cl)cc3)c2)C(C)C)cc1Cl [Compound 369]	> 0.1	–	> 0.01	0.0016	–	–	> 100	> 2.5
CCOc1ccc(N=C(OCc2ccc(F)c(Oc3ccccc3)c2)C(C)C)cc1Cl [Compound 370]	0.02	–	> 0.01	0.00034	–	–	< 100	> 2.5
CC(C)C(=Nc1cccc(F)c1)OCc1ccc(F)c(Oc2ccc(Cl)cc2)c1 [Compound 375]	0.04	–	> 0.01	> 0.1	–	–	7.9	> 2.5
CC(C)C(=Nc1ccc(Cl)c(Cl)c1)OCc1ccc(F)c(Oc2ccccc2)c1 [Compound 376]	0.02	–	0.0061	0.00037	–	–	17	0.1
CC(C)C(=Nc1ccc(C(F)(F)F)c(Br)c1)OCc1ccc(F)c(Oc2ccc(Cl)cc2)c1 [Compound 377]	> 0.1	–	> 0.01	0.00062	–	–	< 100	> 2.5
CC(C)C(=Nc1ccc(Br)cc1)OCc1ccc(F)c(Oc2ccc(Cl)cc2)c1 [Compound 378]	0.02	–	> 0.01	0.00034	–	–	< 100	> 2.5
CC(C)C(=Nc1ccc(Br)c(Cl)c1)OCc1cccc(Oc2ccc(Cl)cc2)c1 [Compound 380]	> 0.1	–	> 0.01	> 0.1	–	–	> 100	> 2.5
CC(C)C(=Nc1ccc(Br)c(Cl)c1)OCc1ccc(F)c(Oc2ccc(Cl)cc2)c1 [Compound 381]	0.018	–	> 0.01	0.00092	–	–	< 100	> 2.5
CC(C)C(=Nc1ccc(Br)c(Cl)c1)OCc1ccc(F)c(Oc2ccc(F)cc2)c1 [Compound 382]	0.027	–	> 0.01	0.00029	–	–	< 100	> 2.5
CC(C)C(=Nc1cccc(Br)c1)OCc1ccc(F)c(Oc2ccccc2)c1 [Compound 387]	0.05	–	> 0.01	0.0012	–	–	< 100	> 2.5
CC(C)C(=Nc1ccc(Cl)cc1)OCc1ccc(F)c(Oc2ccc(Cl)cc2)c1 [Compound 391]	0.035	–	> 0.01	0.00029	–	–	< 100	> 2.5
